Reference: patent US6432934B1, “Methods and compositions for topical treatment of eye surface inflammation and related dry eye disease” (Advanced Vision Research, priority 1998, dated 2002)

Columns and labels:
[1] = test system: rabbit model for meibomianitis/meibomian gland dysfunction; test: Conjunctival goblet-cell density, rabbit model for meibomianitis/meibomian gland dysfunction; type: in vivo, New Zealand white rabbits; conditions: intramuscular 50 mg/kg/d, five days each week, weeks 8-20 post-op
[2] = test system: rabbit model for meibomianitis/meibomian gland dysfunction; test: Corneal epithelial glycogen level, rabbit model for meibomianitis/meibomian gland dysfunction; type: in vivo, New Zealand white rabbits; conditions: intramuscular 50 mg/kg/d, five days each week, weeks 8-20 post-op

CN(C)[C@@H]1C(O)=C(C(N)=O)C(=O)[C@@]2(O)C(O)=C3C(=O)c4c(O)cccc4[C@@](C)(O)[C@H]3C[C@@H]12.Cl [systemic tetracycline, tetracycline hydrochloride]
effect on conjunctival goblet-cell density [1]: no effect
effect on corneal glycogen [2]: no effect
